ChEMBL document CHEMBL5058647, “Data for DCP probe JNJ-9350” (2022)
Several values for one entry are separate records, joined by “and”; a condition that tells them apart may be missing. Equal values may be shown once. Activity calls are given as the source filed them.

Assays:
[1] = molecular target: T1, 5-hydroxytryptamine receptor 1B (Homo sapiens, UniProt P28222); assay: GPCRScan assay: inhibition of 5-HT1B; parameters: radioligand conc. used [nm] 0.6 – 1.5, parental cells stable HEK
[2] = molecular target: T2, 5-hydroxytryptamine receptor 1D (Homo sapiens, UniProt P28221); assay: GPCRScan assay: inhibition of 5-HT1D; parameters: radioligand conc. used [nm] 1.0 – 2.0, parental cells HEKT
[3] = molecular target: T3, 5-hydroxytryptamine receptor 2B (Homo sapiens, UniProt P41595); assay: GPCRScan assay: inhibition of 5-HT2B; parameters: radioligand conc. used [nm] 1.0 – 2.0, parental cells stable HEK
[4] = molecular target: T4, Kappa-type opioid receptor (Homo sapiens, UniProt P41145); assay: GPCRScan assay: inhibition of KOR; parameters: radioligand conc. used [nm] 0.6 – 1.2, parental cells stable HEK
[5] = molecular target: Alpha-2A adrenergic receptor (Homo sapiens, UniProt P08913); assay: GPCRScan assay: inhibition of Alpha2A; parameters: radioligand conc. used [nm] 1.0 – 3.0, parental cells stable MDCK
[6] = molecular target: Alpha-2B adrenergic receptor (Homo sapiens, UniProt P18089); assay: GPCRScan assay: inhibition of Alpha2B; parameters: radioligand conc. used [nm] 1.5 – 2.0, parental cells HEKT
[7] = GPCRScan assay: inhibition of GABA/PBR; parameters: species or system Rattus norvegicus; radioligand conc. used [nm] 0.3 – 2.0, parental cells brain tissue
[8] = molecular target: T5, Sigma intracellular receptor 2 (Homo sapiens, UniProt Q5BJF2); assay: GPCRScan assay: inhibition of Sigma 2; parameters: radioligand conc. used [nm] 5.0, parental cells HEKT
Spermine oxidase [9] = molecular target: T6, Spermine oxidase (Homo sapiens, UniProt Q9NWM0); assay: Horseradish Peroxidase (HRP) Fluorescence Assay
Spermine oxidase [10] = molecular target: T6, Spermine oxidase; assay: SMOX CETSA assay
[11] = molecular target: Peroxisomal N(1)-acetyl-spermine/spermidine oxidase (Homo sapiens, UniProt Q6QHF9); assay: HyPerBlu POAX enzymatic assay
[12] = molecular target: Lysine-specific histone demethylase 1A (Homo sapiens, UniProt O60341); assay: HyPerBlu KDM1A enzymatic assay
[13] = molecular target: T1, 5-hydroxytryptamine receptor 1B; assay: 5-HT1B (h) CEREP ligand profiling; conditions: filed as antagonist, Compound concentration 10.0 uM
[14] = molecular target: 5-hydroxytryptamine receptor 2A (Homo sapiens) (UniProt P28223); assay: 5-HT2A (h) CEREP ligand profiling; conditions: filed as agonist, Compound concentration 10.0 uM
[15] = molecular target: T3, 5-hydroxytryptamine receptor 2B; assay: 5-HT2B (h) CEREP ligand profiling; conditions: filed as agonist, Compound concentration 10.0 uM
[16] = molecular target: Adenosine receptor A1 (Homo sapiens) (UniProt P30542); assay: A1 (h) CEREP ligand profiling; conditions: filed as antagonist, Compound concentration 10.0 uM
[17] = molecular target: Adenosine receptor A2a (Homo sapiens) (UniProt P29274); assay: A2A (h CEREP ligand profiling; conditions: filed as agonist, Compound concentration 10.0 uM
[18] = molecular target: Adenosine receptor A3 (Homo sapiens) (UniProt P0DMS8); assay: A3 (h) CEREP ligand profiling; conditions: filed as agonist, Compound concentration 10.0 uM
[19] = molecular target: Cholecystokinin receptor type A (Homo sapiens) (UniProt P32238); assay: CCK1 (CCKA) (h) CEREP ligand profiling; conditions: filed as agonist, Compound concentration 10.0 uM
[20] = molecular target: T4, Kappa-type opioid receptor; assay: kappa (h) (KOP) CEREP ligand profiling; conditions: filed as agonist, Compound concentration 10.0 uM
[21] = molecular target: T7, Muscarinic acetylcholine receptor M4 (Homo sapiens) (UniProt P08173); assay: M4 (h) CEREP ligand profiling; conditions: filed as antagonist, Compound concentration 10.0 uM
T7 sequence (whole entry): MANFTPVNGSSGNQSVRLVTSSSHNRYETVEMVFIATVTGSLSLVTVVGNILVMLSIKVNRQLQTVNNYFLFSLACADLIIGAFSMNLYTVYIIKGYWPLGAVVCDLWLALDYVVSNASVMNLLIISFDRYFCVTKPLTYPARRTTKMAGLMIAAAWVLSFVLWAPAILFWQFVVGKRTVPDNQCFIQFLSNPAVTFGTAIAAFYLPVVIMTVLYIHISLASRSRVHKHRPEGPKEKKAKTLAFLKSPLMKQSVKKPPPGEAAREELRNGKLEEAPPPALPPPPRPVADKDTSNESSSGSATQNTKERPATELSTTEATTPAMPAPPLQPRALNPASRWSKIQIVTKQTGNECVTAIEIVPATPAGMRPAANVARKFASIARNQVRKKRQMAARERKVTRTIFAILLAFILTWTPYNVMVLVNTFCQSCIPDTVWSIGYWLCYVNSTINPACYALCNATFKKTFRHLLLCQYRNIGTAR

[22] = molecular target: Melatonin receptor type 1A (Homo sapiens) (UniProt P48039); assay: MT1 (ML1A) (h) CEREP ligand profiling; conditions: filed as agonist, Compound concentration 10.0 uM
[23] = molecular target: Substance-K receptor (Homo sapiens) (UniProt P21452); assay: NK2 (h) CEREP ligand profiling; conditions: filed as agonist, Compound concentration 10.0 uM
[24] = molecular target: 3',5'-cyclic-AMP phosphodiesterase 4D (Homo sapiens) (UniProt Q08499); assay: PDE4D2 (h) CEREP ligand profiling; conditions: Compound concentration 10.0 uM
Homo sapiens = species: Homo sapiens; assay: sigma (non-selective) (h) CEREP ligand profiling; conditions: filed as agonist, Compound concentration 10.0 uM
[25] = molecular target: 5-hydroxytryptamine receptor 1A (Homo sapiens) (UniProt P08908); conditions: Compound concentration 10.0 uM
[26] = molecular target: T1, 5-hydroxytryptamine receptor 1B; conditions: Compound concentration 10.0 uM
[27] = molecular target: T2, 5-hydroxytryptamine receptor 1D; conditions: Compound concentration 10.0 uM
[28] = molecular target: 5-hydroxytryptamine receptor 1E (Homo sapiens) (UniProt P28566); conditions: Compound concentration 10.0 uM
[29] = molecular target: 5-hydroxytryptamine receptor 2A (Homo sapiens) (UniProt P28223); conditions: Compound concentration 10.0 uM
[30] = molecular target: T3, 5-hydroxytryptamine receptor 2B; conditions: Compound concentration 10.0 uM
[31] = molecular target: 5-hydroxytryptamine receptor 2C (Homo sapiens) (UniProt P28335); conditions: Compound concentration 10.0 uM
[32] = molecular target: 5-hydroxytryptamine receptor 3A (Homo sapiens) (UniProt P46098); conditions: Compound concentration 10.0 uM
[33] = molecular target: 5-hydroxytryptamine receptor 5A (Homo sapiens) (UniProt P47898); conditions: Compound concentration 10.0 uM
[34] = molecular target: 5-hydroxytryptamine receptor 7 (Homo sapiens) (UniProt P34969); conditions: Compound concentration 10.0 uM
[35] = molecular target: D(1A) dopamine receptor (Homo sapiens) (UniProt P21728); conditions: Compound concentration 10.0 uM
[36] = molecular target: D(2) dopamine receptor (Homo sapiens) (UniProt P14416); conditions: Compound concentration 10.0 uM
D(3) dopamine receptor = D(3) dopamine receptor (Homo sapiens, UniProt P35462); conditions: Compound concentration 10.0 uM
[37] = molecular target: D(4) dopamine receptor (Homo sapiens) (UniProt P21917); conditions: Compound concentration 10.0 uM
[38] = molecular target: D(1B) dopamine receptor (Homo sapiens) (UniProt P21918); conditions: Compound concentration 10.0 uM
[39] = molecular target: Sodium-dependent serotonin transporter (Homo sapiens) (UniProt P31645); conditions: Compound concentration 10.0 uM
[40] = molecular target: Sodium-dependent noradrenaline transporter (Homo sapiens) (UniProt P23975); conditions: Compound concentration 10.0 uM
[41] = molecular target: Sodium-dependent dopamine transporter (Homo sapiens, UniProt Q01959); conditions: Compound concentration 10.0 uM
[42] = molecular target: Mu-type opioid receptor (Homo sapiens) (UniProt P35372); conditions: Compound concentration 10.0 uM
[43] = molecular target: Delta-type opioid receptor (Homo sapiens) (UniProt P41143); conditions: Compound concentration 10.0 uM
[44] = molecular target: T4, Kappa-type opioid receptor; conditions: Compound concentration 10.0 uM
[45] = molecular target: Histamine H1 receptor (Homo sapiens) (UniProt P35367); conditions: Compound concentration 10.0 uM
[46] = molecular target: Histamine H2 receptor (Homo sapiens) (UniProt P25021); conditions: Compound concentration 10.0 uM
[47] = molecular target: Histamine H3 receptor (Homo sapiens) (UniProt Q9Y5N1); conditions: Compound concentration 10.0 uM
[48] = molecular target: Histamine H4 receptor (Homo sapiens) (UniProt Q9H3N8); conditions: Compound concentration 10.0 uM
[49] = molecular target: Alpha-1A adrenergic receptor (Homo sapiens) (UniProt P35348); conditions: Compound concentration 10.0 uM
[50] = molecular target: Alpha-1B adrenergic receptor (Homo sapiens) (UniProt P35368); conditions: Compound concentration 10.0 uM
[51] = molecular target: Alpha-2A adrenergic receptor (Homo sapiens) (UniProt P08913); conditions: Compound concentration 10.0 uM
[52] = molecular target: Alpha-2B adrenergic receptor (Homo sapiens) (UniProt P18089); conditions: Compound concentration 10.0 uM
[53] = molecular target: Alpha-2C adrenergic receptor (Homo sapiens) (UniProt P18825); conditions: Compound concentration 10.0 uM
[54] = molecular target: Beta-1 adrenergic receptor (Homo sapiens) (UniProt P08588); conditions: Compound concentration 10.0 uM
[55] = molecular target: Beta-2 adrenergic receptor (Homo sapiens) (UniProt P07550); conditions: Compound concentration 10.0 uM
[56] = molecular target: Muscarinic acetylcholine receptor M1 (Homo sapiens) (UniProt P11229); conditions: Compound concentration 10.0 uM
[57] = molecular target: Muscarinic acetylcholine receptor M2 (Homo sapiens) (UniProt P08172); conditions: Compound concentration 10.0 uM
[58] = molecular target: Muscarinic acetylcholine receptor M3 (Homo sapiens) (UniProt P20309); conditions: Compound concentration 10.0 uM
[59] = molecular target: T7, Muscarinic acetylcholine receptor M4 (Homo sapiens); conditions: Compound concentration 10.0 uM
[60] = molecular target: Muscarinic acetylcholine receptor M5 (Homo sapiens) (UniProt P08912); conditions: Compound concentration 10.0 uM
[61] = molecular target: Beta-3 adrenergic receptor (Homo sapiens) (UniProt P13945); conditions: Compound concentration 10.0 uM
Rattus norvegicus = species: Rattus norvegicus; conditions: Compound concentration 10.0 uM
[62] = molecular target: Alpha-1D adrenergic receptor (Homo sapiens) (UniProt P25100); conditions: Compound concentration 10.0 uM
[63] = molecular target: T5, Sigma intracellular receptor 2; conditions: Compound concentration 10.0 uM
[64] = molecular target: Sigma non-opioid intracellular receptor 1 (Homo sapiens) (UniProt Q99720); conditions: Compound concentration 10.0 uM

T4 sequence (P41145 whole entry): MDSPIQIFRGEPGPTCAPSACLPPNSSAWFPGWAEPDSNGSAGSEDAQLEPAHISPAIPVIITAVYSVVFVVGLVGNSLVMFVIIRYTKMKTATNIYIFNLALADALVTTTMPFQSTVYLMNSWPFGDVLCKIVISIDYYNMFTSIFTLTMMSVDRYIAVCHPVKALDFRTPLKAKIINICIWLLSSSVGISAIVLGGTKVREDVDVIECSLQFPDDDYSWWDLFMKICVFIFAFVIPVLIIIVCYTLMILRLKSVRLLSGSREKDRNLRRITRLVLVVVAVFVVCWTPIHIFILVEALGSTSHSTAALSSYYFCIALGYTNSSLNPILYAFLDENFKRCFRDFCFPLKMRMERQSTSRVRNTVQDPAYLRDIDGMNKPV
T2 sequence (P28221 whole entry): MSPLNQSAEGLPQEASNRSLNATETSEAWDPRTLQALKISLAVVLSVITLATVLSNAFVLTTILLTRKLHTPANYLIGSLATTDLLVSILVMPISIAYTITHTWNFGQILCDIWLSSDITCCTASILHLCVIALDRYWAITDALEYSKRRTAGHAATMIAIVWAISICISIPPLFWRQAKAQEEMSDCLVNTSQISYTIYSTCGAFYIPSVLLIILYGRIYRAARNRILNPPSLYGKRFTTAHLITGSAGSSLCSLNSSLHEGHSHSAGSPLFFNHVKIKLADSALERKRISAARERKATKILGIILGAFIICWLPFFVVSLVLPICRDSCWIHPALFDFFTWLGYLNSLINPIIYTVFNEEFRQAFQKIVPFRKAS
T3 sequence (P41595 whole entry): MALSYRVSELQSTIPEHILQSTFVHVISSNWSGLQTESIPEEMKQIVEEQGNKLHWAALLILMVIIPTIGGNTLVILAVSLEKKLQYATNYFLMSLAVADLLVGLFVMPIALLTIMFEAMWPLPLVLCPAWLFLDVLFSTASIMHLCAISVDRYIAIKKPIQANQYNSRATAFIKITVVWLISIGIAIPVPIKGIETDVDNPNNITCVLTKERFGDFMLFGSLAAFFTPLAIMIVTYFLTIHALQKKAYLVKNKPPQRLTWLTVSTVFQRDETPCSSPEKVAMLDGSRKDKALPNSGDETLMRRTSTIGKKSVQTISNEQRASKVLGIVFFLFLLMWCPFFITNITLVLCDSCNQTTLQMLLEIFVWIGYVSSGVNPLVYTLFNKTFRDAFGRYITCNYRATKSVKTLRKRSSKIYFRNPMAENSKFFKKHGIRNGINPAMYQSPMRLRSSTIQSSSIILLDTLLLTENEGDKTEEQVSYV
T1 sequence (P28222 whole entry): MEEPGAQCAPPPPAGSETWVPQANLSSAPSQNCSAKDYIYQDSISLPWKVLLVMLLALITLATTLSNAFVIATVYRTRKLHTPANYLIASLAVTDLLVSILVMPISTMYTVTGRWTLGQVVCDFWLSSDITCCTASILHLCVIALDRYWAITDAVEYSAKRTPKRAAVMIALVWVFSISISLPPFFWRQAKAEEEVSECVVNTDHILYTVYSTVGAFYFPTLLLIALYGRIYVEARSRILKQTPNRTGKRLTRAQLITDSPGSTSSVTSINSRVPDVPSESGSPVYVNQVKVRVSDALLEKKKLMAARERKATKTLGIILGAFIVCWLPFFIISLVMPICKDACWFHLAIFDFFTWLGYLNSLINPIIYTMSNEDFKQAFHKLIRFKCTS
Chain of 5-hydroxytryptamine receptor 2A (Homo sapiens) (P28223 whole entry): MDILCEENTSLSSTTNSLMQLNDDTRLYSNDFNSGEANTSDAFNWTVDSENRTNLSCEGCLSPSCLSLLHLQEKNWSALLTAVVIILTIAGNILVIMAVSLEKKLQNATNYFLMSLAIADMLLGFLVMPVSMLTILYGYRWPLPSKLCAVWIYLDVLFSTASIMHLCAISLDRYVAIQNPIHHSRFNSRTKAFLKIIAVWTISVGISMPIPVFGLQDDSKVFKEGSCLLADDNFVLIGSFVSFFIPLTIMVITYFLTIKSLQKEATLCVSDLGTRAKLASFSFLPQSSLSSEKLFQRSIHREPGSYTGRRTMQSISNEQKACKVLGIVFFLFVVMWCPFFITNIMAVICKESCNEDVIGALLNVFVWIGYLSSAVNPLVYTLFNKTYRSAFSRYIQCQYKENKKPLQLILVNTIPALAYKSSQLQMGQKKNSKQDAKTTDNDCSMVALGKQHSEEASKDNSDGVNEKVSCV
T5 sequence (Q5BJF2 whole entry): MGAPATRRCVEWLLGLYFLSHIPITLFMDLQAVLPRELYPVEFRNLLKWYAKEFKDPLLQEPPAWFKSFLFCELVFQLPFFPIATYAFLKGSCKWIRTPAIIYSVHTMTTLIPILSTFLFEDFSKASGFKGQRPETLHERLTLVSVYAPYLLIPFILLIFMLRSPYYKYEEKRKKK
T6 sequence (Q9NWM0 whole entry): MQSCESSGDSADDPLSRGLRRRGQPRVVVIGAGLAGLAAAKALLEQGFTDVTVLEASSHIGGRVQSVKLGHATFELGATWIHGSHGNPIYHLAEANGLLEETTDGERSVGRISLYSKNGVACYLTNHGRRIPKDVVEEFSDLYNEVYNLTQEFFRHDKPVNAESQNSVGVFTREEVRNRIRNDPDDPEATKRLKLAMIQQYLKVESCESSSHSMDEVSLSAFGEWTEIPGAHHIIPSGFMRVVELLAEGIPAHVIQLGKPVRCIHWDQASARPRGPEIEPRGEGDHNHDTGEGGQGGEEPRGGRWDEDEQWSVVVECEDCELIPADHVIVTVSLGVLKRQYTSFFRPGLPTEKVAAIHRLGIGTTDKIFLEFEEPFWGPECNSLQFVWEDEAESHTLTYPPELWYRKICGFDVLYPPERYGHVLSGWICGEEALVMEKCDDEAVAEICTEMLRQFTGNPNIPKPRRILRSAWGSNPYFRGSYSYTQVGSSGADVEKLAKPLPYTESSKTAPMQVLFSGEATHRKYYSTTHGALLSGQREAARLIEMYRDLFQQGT
Chain of Histamine H3 receptor (Homo sapiens) (Q9Y5N1 whole entry): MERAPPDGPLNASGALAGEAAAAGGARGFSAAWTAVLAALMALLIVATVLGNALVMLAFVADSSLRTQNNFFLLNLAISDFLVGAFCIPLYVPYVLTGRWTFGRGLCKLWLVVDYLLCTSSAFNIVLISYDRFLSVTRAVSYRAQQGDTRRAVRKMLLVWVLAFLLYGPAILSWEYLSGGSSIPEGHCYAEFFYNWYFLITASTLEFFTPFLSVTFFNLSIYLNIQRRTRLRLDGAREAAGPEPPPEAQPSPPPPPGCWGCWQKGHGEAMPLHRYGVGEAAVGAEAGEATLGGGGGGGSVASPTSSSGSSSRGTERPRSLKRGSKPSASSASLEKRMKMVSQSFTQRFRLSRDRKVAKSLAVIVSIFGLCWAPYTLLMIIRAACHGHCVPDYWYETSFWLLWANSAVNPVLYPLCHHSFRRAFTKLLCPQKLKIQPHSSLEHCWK
Chain of Alpha-1A adrenergic receptor (Homo sapiens) (P35348 whole entry): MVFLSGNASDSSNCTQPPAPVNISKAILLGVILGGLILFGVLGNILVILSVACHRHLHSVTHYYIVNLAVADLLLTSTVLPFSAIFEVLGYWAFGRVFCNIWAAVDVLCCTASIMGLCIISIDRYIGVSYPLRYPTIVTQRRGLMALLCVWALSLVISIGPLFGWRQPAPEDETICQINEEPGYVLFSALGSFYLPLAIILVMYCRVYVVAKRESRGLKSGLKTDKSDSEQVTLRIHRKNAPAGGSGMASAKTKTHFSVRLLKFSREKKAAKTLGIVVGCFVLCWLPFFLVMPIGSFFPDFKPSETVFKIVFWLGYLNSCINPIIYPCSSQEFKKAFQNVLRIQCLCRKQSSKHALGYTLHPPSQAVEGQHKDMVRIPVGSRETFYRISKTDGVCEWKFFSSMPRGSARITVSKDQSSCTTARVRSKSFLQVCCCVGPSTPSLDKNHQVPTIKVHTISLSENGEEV
Chain of D(1A) dopamine receptor (Homo sapiens) (P21728 whole entry): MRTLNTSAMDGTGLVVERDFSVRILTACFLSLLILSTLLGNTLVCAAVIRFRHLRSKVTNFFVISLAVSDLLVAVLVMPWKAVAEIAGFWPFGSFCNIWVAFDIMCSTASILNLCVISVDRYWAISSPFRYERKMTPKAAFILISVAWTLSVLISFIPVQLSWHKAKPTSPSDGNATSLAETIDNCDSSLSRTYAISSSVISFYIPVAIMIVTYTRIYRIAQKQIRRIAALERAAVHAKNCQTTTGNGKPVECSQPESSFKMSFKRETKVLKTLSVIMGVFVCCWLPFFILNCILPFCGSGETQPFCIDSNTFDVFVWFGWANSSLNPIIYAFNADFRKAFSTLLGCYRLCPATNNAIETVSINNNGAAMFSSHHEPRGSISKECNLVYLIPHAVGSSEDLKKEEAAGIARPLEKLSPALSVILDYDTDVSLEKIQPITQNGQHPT
Chain of 5-hydroxytryptamine receptor 5A (Homo sapiens) (P47898 whole entry): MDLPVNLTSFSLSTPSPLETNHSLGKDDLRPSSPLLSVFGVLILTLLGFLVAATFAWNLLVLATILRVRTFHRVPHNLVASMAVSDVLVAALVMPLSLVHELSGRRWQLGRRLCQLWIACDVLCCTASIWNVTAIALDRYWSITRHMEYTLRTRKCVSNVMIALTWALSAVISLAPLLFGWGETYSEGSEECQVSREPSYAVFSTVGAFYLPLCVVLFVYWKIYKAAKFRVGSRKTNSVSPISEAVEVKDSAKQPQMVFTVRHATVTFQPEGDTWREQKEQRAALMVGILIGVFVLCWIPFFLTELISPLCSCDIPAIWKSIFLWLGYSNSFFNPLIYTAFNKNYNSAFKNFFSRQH
Chain of Histamine H4 receptor (Homo sapiens) (Q9H3N8 whole entry): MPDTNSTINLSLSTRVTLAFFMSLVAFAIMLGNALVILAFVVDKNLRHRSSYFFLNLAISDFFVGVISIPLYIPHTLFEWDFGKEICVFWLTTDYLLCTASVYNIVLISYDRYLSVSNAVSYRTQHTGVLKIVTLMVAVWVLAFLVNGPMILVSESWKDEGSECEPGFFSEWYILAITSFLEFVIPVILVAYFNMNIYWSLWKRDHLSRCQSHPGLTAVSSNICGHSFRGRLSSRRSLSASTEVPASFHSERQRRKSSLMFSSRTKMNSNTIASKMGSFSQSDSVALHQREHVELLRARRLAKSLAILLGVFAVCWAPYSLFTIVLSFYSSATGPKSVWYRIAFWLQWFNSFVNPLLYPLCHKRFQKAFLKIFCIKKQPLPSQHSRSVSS

O=C(NCCCn1ccnc1)c1cc2nc(-c3ccccc3)cc(-c3ccccc3)n2n1
790 nM (not active): IC50 [11]
498 nM: Ki [7]
1920 nM: Ki [8]
318 nM and 219 nM: Ki ([2]; read-out: Ki)
1170 nM: Ki [4]
inactive: inhibition [13] 62.1% | inhibition [14] 69.9% | inhibition [15] 68.5% | inhibition [16] 98.9% | inhibition [17] 75% | inhibition [18] 75.1% | inhibition [19] 70.3% | inhibition [20] 74.1% | inhibition [21] 59.8% | inhibition [22] 58.8% | inhibition [23] 56.8% | inhibition [24] 63% | inhibition (Homo sapiens) 62.8% | inhibition [25] 13.1% | inhibition [28] 0.95% | inhibition [29] 27.4% | inhibition [31] 28.4% | inhibition [32] 25.6% | inhibition [33] 17.5% | inhibition [34] 8.26% | inhibition [35] 28.9% | inhibition [36] 25.3% | inhibition (D(3) dopamine receptor) 40.5% | inhibition [37] 20.9% | inhibition [38] 20.4% | inhibition [39] 16.6% | inhibition [40] 46% | inhibition [41] 47.7% | inhibition [42] 24.8% | inhibition [43] 17.1% | inhibition [45] 4.87% | inhibition [46] 26.9% | inhibition [47] -7.55% | inhibition [48] 32.6% | inhibition [49] 3.52% | inhibition [50] 10.2% | inhibition [52] 42.2% | inhibition [53] 20.1% | inhibition [54] 2.96% | inhibition [55] -4.5% | inhibition [56] 24.8% | inhibition [57] 24.3% | inhibition [58] 32% | inhibition [59] 36.6% | inhibition [60] 37.9% | inhibition [61] -7.92% | inhibition [62] 28.1% | inhibition [64] 30.5%
3580 nM: Ki [6]
6.3: pKi [7]
478 nM: Ki ([1]; read-out: Ki)
active: Ki (Spermine oxidase [9]) 9.9 nM | IC50 (Spermine oxidase [10]) 1200 nM | inhibition [26] 104% | inhibition [27] 101% | inhibition [30] 57.9% | inhibition [44] 73.3% | inhibition [51] 64% | inhibition (Rattus norvegicus) 114% | inhibition [63] 76.7%
407 nM: Ki ([1]; read-out: pKi (converted))
> 60000 nM (not active): IC50 [12]
3830 nM: Ki [5]
897 nM: Ki [3]
195 nM: Ki ([2]; read-out: pKi (converted))
